Source: PMC9732821, “Neurotrophic Activity and Its Modulation by Zinc Ion of a Dimeric Peptide Mimicking the Brain-Derived Neurotrophic Factor N-Terminal Region” (ACS Chemical Neuroscience, 2022)

Legend:
[1] = potentiometric titration, Zn^2+ complex stability constants; format: binding; conditions: 298 K, 0.1 M KNO3, metal/ligand 0.9:1 to 2.2:1
Method: Potentiometric measurements were carried out to give insight into the coordination environment of Zn^2+ bound to the d-bdnf peptide (Figure S5). […] The four protonation equilibria of the aspartic and glutamic residues partly overlap but, in agreement with the literature data, the aspartic β-carboxylic group is more acidic than glutamic γ-carboxylic one.[48] The potentiometric titrations were carried out exploring 0.9:1 and 2.2:1 metal to ligand molar ratio. […] The peptide forms two complex species, [ZnLH] and [ZnL]. The first one is the predominant at pH = 6, and the calculated stability constant value [logK(111) = logβ(111) – logK(011) = 5.71] indicates the involvement of three nitrogen atoms in the metal coordination environment. The [ZnL] species display a stability constant value, logβ = 7.15, higher than that of protonated species indicative of the involvement of a further nitrogen atom in the metal binding mode. In this complex species, Zn^2+ is bound to four nitrogen atoms with the involvement of two amino and two imidazole (2NH2,2NIm coordination mode). […]
Potentiometric measurements
Potentiometric titrations were carried out on a Titrando 905 automatic, using a combined glass-Ag/AgCl electrode (Metrohm, Switzerland). […] To avoid systematic errors and verify reproducibility, the EMF values of each experiment were recorded at different time intervals. The data were analyzed by […]

[2] = far-UV CD spectra and Zn^2+ titration; format: physicochemical; conditions: water, 298 K, pH 7.4, wide minimum around 200 nm
Method: Figure 5 Evaluation of Zn^2+ ion binding on d-bdnf. (A,B) Deconvoluted ESI mass spectra of 10^–6 M d-bdnf solutions incubated in water 2 h, 37 °C in the presence of a 100-fold excess of Zn^2+. 0.1% of formic acid was added (A) or not (B) just before the infusion. (C) Far-UV CD spectra at pH 7.4 for titration with Zn^2+ of d-bdnf (the black curve is the spectrum of peptide; red, green, blue, cyano, and gray are spectra of peptide after the addition of increasing equivalents of metal ions. (D) Spectral changes as a function of zinc addition monitored at λ = 222 nm. [d-bdnf] = 1 × 10^–5 M. (E) Most representative conformation for the BDNF(1–12) dimer coordinating Zn(II) metal ion. Carbon atoms are shown in silver, nitrogen atoms are reported in blue, oxygen atoms in red, sulfur atoms are represented in yellow, and Zn atom is reported in orange. The secondary structure of the peptide is represented in green.
Far-UV CD spectra were obtained at 298 K under a constant flow of nitrogen by using a Jasco model 810 spectropolarimeter. […]
Potentiometric titrations were carried out on a Titrando 905 automatic, using a combined glass-Ag/AgCl electrode (Metrohm, Switzerland). […] To avoid systematic errors and verify reproducibility, the EMF values of each experiment were recorded at different time intervals. The data were analyzed by using HYPERQUAD 2003 program 17. […]

HSDPARRGELSVC-C-VSLEGRRAPDSH (disulfide) [d-bdnf]
log (Zn2+ complex stability constant) ([1]; species ZnLH 110, [ZnL] (2 His, 2 NH2)): 7.15 (3)
log (Zn2+ complex stability constant) ([1]; species ZnLH 111 (2 His, NH2)): 13.30 (2)
conformation by far-UV CD [2]: predominantly a random coil conformation
